# Data as given in patent US11242337B2, “Compounds useful for treating gastrointestinal tract disorders” (Ardelyx, Inc., priority 2017, dated 2022).
# Target: T1, NHE3 (Homo sapiens, UniProt P48764)
# T1 construct: expressed in transfected cells
# T1 sequence (P48764 26-834): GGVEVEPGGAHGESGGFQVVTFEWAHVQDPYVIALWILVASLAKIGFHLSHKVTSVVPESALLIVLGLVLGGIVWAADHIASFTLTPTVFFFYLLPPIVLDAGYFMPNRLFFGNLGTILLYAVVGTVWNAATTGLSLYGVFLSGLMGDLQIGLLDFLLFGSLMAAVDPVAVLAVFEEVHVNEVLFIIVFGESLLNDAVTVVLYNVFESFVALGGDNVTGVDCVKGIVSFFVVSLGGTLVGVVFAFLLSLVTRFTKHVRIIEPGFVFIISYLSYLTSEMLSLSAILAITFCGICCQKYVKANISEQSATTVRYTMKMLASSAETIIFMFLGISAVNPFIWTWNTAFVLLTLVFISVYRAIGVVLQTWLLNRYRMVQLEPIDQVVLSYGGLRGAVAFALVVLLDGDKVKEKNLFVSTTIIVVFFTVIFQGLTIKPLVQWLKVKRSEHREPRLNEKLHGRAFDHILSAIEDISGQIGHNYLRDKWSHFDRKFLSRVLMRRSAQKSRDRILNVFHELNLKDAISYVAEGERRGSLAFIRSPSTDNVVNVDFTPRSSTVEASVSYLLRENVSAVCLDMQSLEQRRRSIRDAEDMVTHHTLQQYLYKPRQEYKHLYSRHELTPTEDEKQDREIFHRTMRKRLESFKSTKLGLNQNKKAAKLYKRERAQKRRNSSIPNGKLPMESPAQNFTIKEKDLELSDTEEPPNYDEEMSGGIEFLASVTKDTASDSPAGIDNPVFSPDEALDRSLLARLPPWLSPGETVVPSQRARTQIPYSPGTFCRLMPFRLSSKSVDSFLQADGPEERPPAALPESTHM
# T1 sequence (Q99653 2-195 partner limits assumed): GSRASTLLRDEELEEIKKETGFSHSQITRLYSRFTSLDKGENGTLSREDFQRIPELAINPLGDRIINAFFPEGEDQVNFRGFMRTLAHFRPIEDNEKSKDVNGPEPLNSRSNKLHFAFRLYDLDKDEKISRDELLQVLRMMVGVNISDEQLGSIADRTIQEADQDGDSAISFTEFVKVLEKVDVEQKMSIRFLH
# Experiment: Cell-based assay of NHE-3 activity (pre-incubation inhibition), human
# Details: human Preincubation; for pIC50: 0-30 μM test compound
# In short: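 PS120 fibroblasts stably expressing human NHE3 and NHERF2, loaded 30 min at 37 °C with 5 μM BCECF-AM in NH4Cl buffer, then acidified 10 min at room temperature in Na+-free buffer with 0–30 μM compound. Initial rate of BCECF fluorescence ratio change (FLIPR) per minute taken as Na+/H+ activity.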
compound,measurement,value
"Cc1cc(S(=O)(=O)N[C@H]2CCN(CCOCCNC(=O)NCCCCNC(=O)NCCOCCN3CC[C@H](NS(=O)(=O)c4ccc(O[C@H]5c6cc(Cl)cc(Cl)c6C[C@@H]5N(C)C)c(C)c4)C3)C2)ccc1O[C@H]1c2cc(Cl)cc(Cl)c2C[C@@H]1N(C)C [Example 52, 3-(2-[2-[(3S)-3-[(4-[[(1S,2S)-4,6-Dichloro-2-(dimethylamino)-2,3-dihydro-1H-inden-1-yl]oxy]-3-methylbenzene)sulfonamido]pyrrolidin-1-yl]ethoxy]ethyl)-1-(4-[[(2-[2-[(3S)-3-[(4-[[(1S,2S)-4,6-dichloro-2-(dimethylamino)-2,3-dihydro-1H-inden-1-yl]oxy]-3-methylbenzene)sulfonamido]pyrrolidin-1-yl]ethoxy]ethyl)carbamoyl]amino]butyl)urea]",% inhibition,C (>70%)
same,pIC50,C (NHE3 pIC50 > 7)
"Cc1cc(S(=O)(=O)N[C@@H]2CCN(CCOCCNC(=O)NCCCCNC(=O)NCCOCCN3CC[C@@H](NS(=O)(=O)c4ccc(O[C@H]5c6cc(Cl)cc(Cl)c6C[C@@H]5N(C)C)c(C)c4)C3)C2)ccc1O[C@H]1c2cc(Cl)cc(Cl)c2C[C@@H]1N(C)C [Example 53, 3-(2-[2-[(3R)-3-[(4-[[(1S,2S)-4,6-Dichloro-2-(dimethylamino)-2,3-dihydro-1H-inden-1-yl]oxy]-3-methylbenzene)sulfonamido]pyrrolidin-1 yl]ethoxy]ethyl)-1-(4-[[(2-[2-[(3R)-3-[(4-[[(1S,2S)-4,6-dichloro-2-(dimethylamino)-2,3-dihydro-1H-inden-1-yl]oxy]-3-methylbenzene)sulfonamido]pyrrolidin-1-yl]ethoxy]ethyl)carbamoyl]amino]butyl)urea]",% inhibition,C (>70%)
same,pIC50,C (NHE3 pIC50 > 7)
"Cc1cc(S(=O)(=O)N[C@@H]2CCN(CCOCCNC(=O)NCCCCNC(=O)NCCOCCN3CC[C@@H](NS(=O)(=O)c4ccc(O[C@H]5c6cc(Cl)cc(C#N)c6C[C@@H]5N(C)C)c(C)c4)C3)C2)ccc1O[C@H]1c2cc(Cl)cc(C#N)c2C[C@@H]1N(C)C [Example 55, 3-(2-[2-[(3R)-3-[(4-[[(1S,2S)-6-Chloro-4-cyano-2-(dimethylamino)-2,3-dihydro-1H-inden-1-yl]oxy]-3-methylbenzene)sulfonamido]pyrrolidin-1-yl]ethoxy]ethyl)-1-(4-[[(2-[2-[(3R)-3-[(4-[[(1S,2S)-6-chloro-4-cyano-2-(dimethylamino)-2,3-dihydro-1H-inden-1-yl]oxy]-3-methylbenzene)sulfonamido]pyrrolidin-1-yl]ethoxy]ethyl)carbamoyl]amino]butyl)urea]",% inhibition,C (>70%)
"Cc1cc(O[C@H]2c3cc(Cl)cc(Cl)c3C[C@@H]2N(C)C)c(F)cc1S(=O)(=O)NCCOCCOCCNC(=O)NCCCCNC(=O)NCCOCCOCCNS(=O)(=O)c1cc(F)c(O[C@H]2c3cc(Cl)cc(Cl)c3C[C@@H]2N(C)C)cc1C [Example 88, 3-[2-(2-[2-[(4-[[(1S,2S)-4,6-Dichloro-2-(dimethylamino)-2,3-dihydro-1H-inden-1-yl]oxy]-5-fluoro-2-methylbenzene)sulfonamido]ethoxy]ethoxy)ethyl]-1-[4-([[2-(2-[2-[(4-[[(1S,2S)-4,6-dichloro-2-(dimethylamino)-2,3-dihydro-1H-inden-1-yl]oxy]-5-fluoro-2-methylbenzene)sulfonamido]ethoxy]ethoxy)ethyl]carbamoyl]amino)butyl]urea]",% inhibition,C (>70%)
same,pIC50,C (NHE3 pIC50 > 7)
"N#Cc1cc(Cl)cc2c1C[C@H](N1CCNCC1)[C@H]2Oc1ccc(S(=O)(=O)N[C@@H]2CCN(CCOCCNC(=O)NCCCCNC(=O)NCCOCCN3CC[C@@H](NS(=O)(=O)c4ccc(O[C@H]5c6cc(Cl)cc(C#N)c6C[C@@H]5N5CCNCC5)c(F)c4)C3)C2)cc1F [Example 109, 4-([(1S,2S)-6-Chloro-4-cyano-2-(piperazin-1-yl)-2,3-dihydro-1H-inden-1-yl]oxy)-N—[(R)-1-(20-[(R)-3-[(4-([(1S,2S)-6-chloro-4-cyano-2-(piperazin-1-yl)-2,3-dihydro-1H-inden-1-yl]oxy)-3-fluorophenyl)sulfonamide)pyrrolidin-1-yl]-7,14-dioxo-3,18-dioxa-6,8,13,15-tetraazaicosyl)pyrrolidin-3-yl]-3-fluorobenzenesulfonamide; tetra(trifluoroacetate)]",% inhibition,C (>70%)
same,pIC50,C (NHE3 pIC50 > 7)
"N#Cc1cc(Cl)cc2c1C[C@H](N1CCNCC1)[C@H]2Oc1ccc(S(=O)(=O)N2CCC(NC(=O)CCCNC(=O)NCCCCNC(=O)NCCCC(=O)NC3CCN(S(=O)(=O)c4ccc(O[C@H]5c6cc(Cl)cc(C#N)c6C[C@@H]5N5CCNCC5)cc4)CC3)CC2)cc1 [Example 120, N^1,N^18-Bis(1-([4-([(1S,2S)-6-chloro-4-cyano-2-(piperazin-1-yl)-2,3-dihydro-1H-inden-1-yl]oxy)phenyl]sulfonyl)piperidin-4-yl)-6,13-dioxo-5,7,12,14-tetraazaoctadecanediamide]",% inhibition,C (>70%)
same,pIC50,C (NHE3 pIC50 > 7)
"CN(C)[C@H]1CCCN([C@H]2Cc3c(C#N)cc(Cl)cc3[C@@H]2Oc2ccc(S(=O)(=O)NCCOCCOCCNC(=O)NCCCCNC(=O)NCCOCCOCCNS(=O)(=O)c3ccc(O[C@H]4c5cc(Cl)cc(C#N)c5C[C@@H]4N4CCC[C@H](N(C)C)C4)cc3)cc2)C1 [Example 122, 4-([(1S,2S)-6-Chloro-4-cyano-2-[(S)-3-(dimethylamino)piperidin-1-yl]-2,3-dihydro-1H-inden-1-yl]oxy)-N-[26-([4-([(1S,2S)-6-chloro-4-cyano-2-[(S)-3-(dimethylamino)piperidin-1-yl]-2,3-dihydro-1H-inden-1-yl]oxy)phenyl]sulfonamido)-10,17-dioxo-3,6,21,24-tetraoxa-9,11,16,18-tetraazahexacosyl]benzenesulfonamide]",% inhibition,C (>70%)
same,pIC50,C (NHE3 pIC50 > 7)
"N#Cc1cc(Cl)cc2c1C[C@H](N1CCNCC1)[C@H]2Oc1ccc(S(=O)(=O)NC2CCN(CCOCCNC(=O)NCCCCNC(=O)NCCOCCN3CCC(NS(=O)(=O)c4ccc(O[C@H]5c6cc(Cl)cc(C#N)c6C[C@@H]5N5CCNCC5)cc4)CC3)CC2)cc1 [Example 123, 4-([(1S,2S)-6-Chloro-4-cyano-2-(piperazin-1-yl)-2,3-dihydro-1H-inden-1-yl]oxy)-N-[1-(20-[4-([4-([(1S,2S)-6-chloro-4-cyano-2-(piperazin-1-yl)-2,3-dihydro-1H-inden-1-yl]oxy)phenyl]sulfonamide]piperidin-1-yl)-7,14-dioxo-3,18-dioxa-6,8,13,15-tetraazaicosyl]piperidin-4-yl)benzenesulfonamide]",% inhibition,C (>70%)
same,pIC50,C (NHE3 pIC50 > 7)
"C[C@@H]1CN([C@H]2Cc3c(C#N)cc(Cl)cc3[C@@H]2Oc2ccc(S(=O)(=O)N[C@H]3CCN(CCOCCNC(=O)NCCCCNC(=O)NCCOCCN4CC[C@H](NS(=O)(=O)c5ccc(O[C@H]6c7cc(Cl)cc(C#N)c7C[C@@H]6N6CCN[C@H](C)C6)cc5)C4)C3)cc2)CCN1 [Example 132, 4-([(1S,2S)-6-Chloro-4-cyano-2-[(R)-3-methylpiperazin-1-yl]-2,3-dihydro-1H-inden-1-yl]oxy)-N—[(S)-1-(20-[(S)-3-([4-([(1S,2S)-6-chloro-4-cyano-2-[(R)-3-methylpiperazin-1-yl]-2,3-dihydro-1H-inden-1-yl]oxy)phenyl]sulfonamido)pyrrolidin-1-yl]-7,14-diaxo-3,18-dioxa-5,8,13,15-tetraazaicosyl)pyrrolidin-3-yl]benzenesulfonamide; bis(trifluoroacetic acid)]",% inhibition,C (>70%)
same,pIC50,C (NHE3 pIC50 > 7)
